The values that follow are results of earlier work, collected in patent US20040106561A1, “Health supplement” (Novogen Research Pty. Ltd., priority 1992, published 2004).

The structures appear in SMILES notation.

In one series the test system is oestrogen receptors. As to conditions: animal and in vitro studies.
In the case of `O=c1c(-c2ccc(O)cc2)coc2cc(O)cc(O)c12` [genistein], the “oestrogenic/anti-oestrogenic activity and SHBG-stimulating capacity relative to daidzein and formononetin” value is “approximately 10 times”.

The same series, now with this note: in vitro and in vivo studies; descending order genistein, biochanin A, equol, daidzein, formononetin.
As for `CC(C(=O)c1ccc(O)cc1O)c1ccc(O)cc1` (stereo not shown) [O-desmethylangolensin], the oestrogenic activity result is “only very weakly oestrogenic”.
`COc1ccc(-c2coc3cc(O)cc(O)c3c2=O)cc1` [biochanin A]: the oestrogenic activity result is “oestrogenic activity”.
Regarding `O=c1c(-c2ccc(O)cc2)coc2cc(O)ccc12` [daidzein], the oestrogenic activity result was “oestrogenic activity”.
Regarding `Oc1ccc([C@H]2COc3cc(O)ccc3C2)cc1` [equol], the oestrogenic activity result is listed as “oestrogenic activity”.
Regarding `O=c1c(-c2ccc(O)cc2)coc2cc(O)cc(O)c12` [genistein], the oestrogenic activity entry is on record as “oestrogenic activity”.
For `COc1cc2c(=O)c(-c3ccc(O)cc3)coc2cc1O` [glycitein], the oestrogenic activity entry is given as “non-oestrogenic”.
